Columns and labels:
Assay type in all cases: functional, Mesocricetus auratus
Syrian golden hamster [1] = experiment: Antidiabetic activity against high fructose high fat diet fed syrian golden hamster assessed as change in serum insulin level at 30 mg/kg, po for 7 days by ELISA relative to untreated control
Syrian golden hamster [2] = experiment: Antidyslipidemic activity against high fructose high fat diet fed syrian golden hamster assessed as change in serum HDL-cholesterol at 30 mg/kg, po for 7 days relative to untreated control
Syrian golden hamster [3] = experiment: Antidyslipidemic activity against high fructose high fat diet fed syrian golden hamster assessed as reduction in serum cholesterol at 30 mg/kg, po for 7 days relative to untreated control; set-up: scale not given: the % may be the effect or the level left
Syrian golden hamster [4] = experiment: Antidiabetic activity against high fructose high fat diet fed syrian golden hamster assessed as change in fasting blood glucose level at 30 mg/kg, po for 7 days relative to untreated control
Syrian golden hamster [5] = experiment: Antidyslipidemic activity against high fructose high fat diet fed syrian golden hamster assessed as reduction in serum LDL-cholesterol at 30 mg/kg, po for 7 days relative to untreated control; set-up: scale not given: the % may be the effect or the level left
Syrian golden hamster [6] = experiment: Antidyslipidemic activity against high fructose high fat diet fed syrian golden hamster assessed as reduction in serum triglyceride at 30 mg/kg, po for 7 days relative to untreated control; set-up: scale not given: the % may be the effect or the level left
Syrian golden hamster [7] = experiment: Antidyslipidemic activity against high fructose high fat diet fed syrian golden hamster assessed as increase in lipoprotein lipase activity at 30 mg/kg, po for 7 days relative to untreated control
Syrian golden hamster [8] = experiment: Antidyslipidemic activity against high fructose high fat diet fed syrian golden hamster assessed as reduction in glycerol level at 30 mg/kg, po for 7 days relative to untreated control; set-up: scale not given: the % may be the effect or the level left

Row | SMILES | Activity (Syrian golden hamster [1]) | Activity (Syrian golden hamster [2]) | Activity (Syrian golden hamster [3]) | Activity (Syrian golden hamster [4]) | Activity (Syrian golden hamster [5]) | Activity (Syrian golden hamster [6]) | Activity (Syrian golden hamster [7]) | Activity (Syrian golden hamster [8])
1 | CCOC(=O)C(C)(C)Oc1cccc(/C=C/C(=O)c2ccccc2)c1 | -5.89% | 2.1% | 11.5% | -10.5% | 15.3% | 18.5% |  | 
2 | CCOC(=O)C(C)(C)Oc1ccc(C(=O)/C=C/c2cc(Cl)cc(Cl)c2)cc1 | -12.1% | 10.1% | 16.9% | -8.4% | 16.8% | 17.4% |  | 
3 | CCOC(=O)C(C)(C)Oc1ccc(C(=O)/C=C/c2ccc(Cl)cc2)cc1 | -22.2% | -2.52% | 23.7% | 5.4% | 20.5% | 22.7% |  | 
4 | CCOC(=O)C(C)(C)Oc1ccc(C(=O)/C=C/c2ccc(C)cc2)cc1 | -10.8% | 2.52% | 23.4% | -12.9% | 19.8% | 22.7% |  | 
5 | CC(C)OC(=O)C(C)(C)Oc1ccc(C(=O)c2ccc(Cl)cc2)cc1 [FENOFIBRATE] | -11.5% | 9.8% |  | -5.4% | 30.1% | 28.9% | 21.1% | 22.4%

Reference: ChEMBL document CHEMBL1777781, “Synthesis and antidyslipidemic activity of chalcone fibrates” (2011)
